In this assay the test system is CEM cells HIV-1 protection, formazan growth assay. The assay is described as follows: NCI AIDS Antiviral Assay. Conditions: for IC50: measured here: growth of uninfected CEM cells. The method, boiled down:
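Five concentrations of each compound were applied to infected and uninfected human CEM cells. Protection from HIV-1 was judged from growth measured with a soluble formazan assay.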

SMILES strings stand for the structures. The source made the active and inactive calls.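 How the source made its calls: active means compounds giving half or more protection of infected cells from virus-caused growth loss, again on retest; inactive means the rest.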 Where only a bound is given, the exact number is not on record here.

The EC50 is the concentration giving half of the maximal effect. Usually IC50 stands for the concentration at which inhibition is half-maximal. Read a high IC50 as weaker potency in that assay.

Regarding `FC(F)(F)/C(=N/Nc1ccccc1)SS/C(=N\Nc1ccccc1)C(F)(F)F`, the EC50 was > 200 µM and the IC50 was 38 µM.

For the compound `NC(=O)c1cccc([C@@H]2O[C@H](CO)[C@@H](O)[C@H]2O)c1`, the EC50 was > 977 µM and the half-maximal inhibitory concentration (IC50) turned out to be 5.37 µM.

As for `O=S1(=O)CC2OC(c3ccccc3)OC2C1` (configuration not stated), the EC50 was > 537 µM and the half-maximal inhibitory concentration (IC50) was > 537 µM.

With `CC(=O)OC12c3ccccc3-c3ccccc3C1C1C(=O)OC(=O)C12` (configuration not stated), the EC50 is > 282 µM and the IC50 was > 282 µM.

`CCN(CC)C1C=CCC2C1S(=O)(=O)C2(C)C` (configuration not stated): the EC50 was > 977 µM and the half-maximal inhibitory concentration (IC50) was > 977 µM.

Turning to `CC(=O)NNc1nc(C)c(C(=O)NNC(=O)C(=O)Nc2c(C)cccc2C)s1`, the EC50 was > 89.1 µM and the 50% inhibitory concentration (IC50) was 28.2 µM.

For `Cc1c(O)ccc(N=O)c1O`, the EC50 was > 200 µM and the IC50 worked out at 123 µM.

For `N#CNC(N)=NCCO`, the EC50 is > 692 µM and the IC50 is > 692 µM.

As to `CN(C)c1ccc(/C=C(\NC(=O)c2ccccc2)C(=O)Nc2ccccc2C(=O)NCc2ccccc2)cc1`, the EC50 was > 151 µM and the IC50 came out at 70.8 µM.

Consider `NC(=S)C1=C(N)Oc2c(c(=O)oc3ccccc23)C1c1ccc(Br)cc1` (configuration not stated), for which the EC50 was > 200 µM and the half-maximal inhibitory concentration (IC50) was determined as 126 µM.

In the case of `Cc1ccc([N+](=O)[O-])cc1NC1=NCCO1`, the EC50 was > 200 µM and the half-inhibitory concentration (IC50) was 186 µM.

On to `CCOC(=O)CNC(=O)N(CC)C12CC3CC(CC(C3)C1)C2`, for which the EC50 is > 200 µM and the IC50 is 129 µM.

As to `CC(C)(C)[Si](C)(C)OC[C@H]1O[C@@H](n2ccc(=O)[nH]c2=O)C(O[Si](C)(C)C(C)(C)C)[C@]12CCN(O)CO2` (some centres not stated), the EC50 is > 200 µM and the IC50 was 11.5 µM.

Take `Nc1c(N2CCCCC2)c(=O)nc2[nH]/c(=C\c3ccco3)c(=O)n12`: the EC50 was > 200 µM and the half-inhibitory concentration (IC50) was found to be 158 µM.

`NNC(=O)CNC(=O)c1ccc(Cl)cc1Cl`: the EC50 was > 27.5 µM and the IC50 was > 27.5 µM.

For the compound `COC(=O)C(Cc1ccccc1)NP(=O)(O)OCC1OC(n2cc(F)c(=O)[nH]c2=O)CC1O` (configuration not stated), the EC50 is > 200 µM and the concentration for half-maximal inhibition (IC50) is 58.9 µM.

As for `Cc1cn(C2COC(CO)C2CO)c(=O)[nH]c1=O` (configuration not stated), the half-maximal effective concentration (EC50) is 44.7 µM and the IC50 was > 200 µM.

Take `S=C(N/N=C(/c1ccccc1)c1ccccn1)Nc1cccc(Cl)c1`: the EC50 is > 0.2 µM and the concentration for half-maximal inhibition (IC50) worked out at 0.0891 µM.

As to `O=S1CCCCS1` (configuration not stated), the EC50 was > 912 µM and the IC50 was determined as 17.4 µM.

Regarding `Fc1cccc2c(=S)cn[nH]c12`, the EC50 is > 200 µM and the IC50 worked out at 186 µM.

Take `CCN(CC)C(C(=O)Nc1c(C)cccc1C)N(CC)CC`: the EC50 is > 200 µM and the 50% inhibitory concentration (IC50) is > 200 µM.

For the compound `CN(CCO)CCN1c2ccccc2Sc2ccccc21`, the outcome was inactive.

With `CCP(=O)(CC)C(Cl)(Cl)C(O)C(C)(C)C` (configuration not stated), the EC50 is > 200 µM and the 50% inhibitory concentration (IC50) is > 200 µM.

Consider `O=C(NCCCCCCCN1CCCCCC1)C1c2ccccc2-c2ccccc21`, for which the EC50 is > 200 µM and the 50% inhibitory concentration (IC50) was 39.8 µM.

`CCCCCCCCCCCCCCCc1cccc(O)c1C(=O)O`: the result was inactive.

In the case of `N#CC(C#N)=c1ccc(=C(C#N)C#N)c2nsnc12`, the EC50 was > 38 µM and the IC50 was > 38 µM.

For the compound `CN1CCC(OC(c2ccccc2)c2ccc(Cl)cc2)C1` (configuration not stated), the result was inactive.

With `CN1C(=O)[C@@H]2N(N(C)C1=O)[C@@]1(Br)C(=O)NC(=O)[C@@]21Br`, the EC50 is 102 µM and the half-maximal inhibitory concentration (IC50) came out at 148 µM.

In the case of `COc1ccc(C2c3cc4c(cc3OC(N3CCCCC3)C2C)OCO4)cc1` (configuration not stated), the EC50 was > 200 µM and the IC50 is > 200 µM.

Regarding `COc1ccc(/C=C2\SC(=S)NC2=O)cc1`, the EC50 was > 28.8 µM and the IC50 was > 28.8 µM.

In the case of `COC1c2ccccc2C2C(Cl)(Cl)C23c2ccccc2C13` (configuration not stated), the EC50 was > 12 µM and the IC50 was > 12 µM.

For the compound `C1CCCC(N2N=NC3C4CC(C5N=NN(C6CCCCCC6)C45)C32)CC1` (configuration not stated), the EC50 was > 200 µM and the IC50 was > 200 µM.

For `O=C(/C=C/c1ccccc1)NC(=S)NCc1ccco1`, the EC50 is > 200 µM and the half-maximal inhibitory concentration (IC50) was > 200 µM.

As for `Nc1ccc(C2CCC(C(=O)O)N2)cc1` (configuration not stated), the EC50 is > 200 µM and the concentration for half-maximal inhibition (IC50) was > 200 µM.

`Cc1ccc(SSc2ccc([N+](=O)[O-])cc2)cc1`: the EC50 was > 200 µM and the IC50 turned out to be 9.55 µM.

In the case of `COC(=O)C12CCC(C(F)(F)C1=O)C2(C)C` (configuration not stated), the EC50 was > 200 µM and the half-maximal inhibitory concentration (IC50) was > 200 µM.

As for `CCN(CC)CCOc1cccc(NC(=O)CN(CC)CC)c1`, the EC50 was > 200 µM and the half-maximal inhibitory concentration (IC50) came out at 81.3 µM.

On to `O=C1NC(O)c2cc3ccccc3cc2O1` (configuration not stated), for which the EC50 was > 200 µM and the 50% inhibitory concentration (IC50) stood at 112 µM.

In the case of `CCCCOCn1c(=O)[nH]c(=O)c2ccccc21`, the EC50 is > 200 µM and the IC50 was 162 µM.

Regarding `O=[N+]([O-])c1cc(-c2ccccc2)c([O][Sn]([c]2ccccc2)([c]2ccccc2)[c]2ccccc2)c([N+](=O)[O-])c1`, the EC50 was > 200 µM and the IC50 was 3.8 µM.

Regarding `Cc1cn(C2CCC(CO)(CF)O2)c(=O)[nH]c1=O` (configuration not stated), the EC50 is > 200 µM and the IC50 is > 200 µM.

On to `O=S(=O)(c1ccccc1)C(Br)c1ccccc1` (configuration not stated), for which the EC50 is > 158 µM and the IC50 was > 158 µM.

Turning to `Cc1cccc(Nc2ccccc2C(=O)O)c1C`, the EC50 was > 200 µM and the IC50 was determined as 129 µM.

As for `CCOC(=O)c1cc(Br)c(-c2onc(C)c2Br)[nH]1`, the EC50 is > 200 µM and the IC50 was > 200 µM.

As to `O=C(O)Cn1cc([N+](=O)[O-])c(=O)c2ccccc21`, the EC50 was > 200 µM and the IC50 was > 200 µM.

Consider `O=C(Nc1ccc([N+](=O)[O-])cc1)C(=O)C(C(=O)c1ccccc1F)C1OC(=O)c2ccccc21` (configuration not stated), for which the EC50 is > 204 µM and the IC50 turned out to be 8.71 µM.

For `CCN(CC)c1ccc(N=O)c(O)c1`, the EC50 is > 200 µM and the 50% inhibitory concentration (IC50) was 8.71 µM.

On to `CC(=O)OCC(=O)OC[C@H](OCc1ccccc1)[C@@H]1[C@H](OC(C)=O)C(=O)N1Cc1ccccc1`, for which the EC50 was > 200 µM and the IC50 was 145 µM.

Regarding `CN1CCCC1CCNc1nc(Nc2ccc(Cl)c(Cl)c2)nc2ccc(Cl)cc12` (configuration not stated), the EC50 was > 19.1 µM and the IC50 came out at 3.24 µM.

With `Cc1[nH]nc(-c2ccon2)c1N=O`, the EC50 was > 200 µM and the half-inhibitory concentration (IC50) was found to be 8.91 µM.

Take `COc1cc2oc(-c3ccc4c(c3)OCO4)c(OC)c(=O)c2c(O)c1OC`: the EC50 was > 100 µM and the 50% inhibitory concentration (IC50) is > 100 µM.

With `CCOc1csc([C@H]2CCC3[C@@H]4CC=C5C[C@@H](OC(C)=O)CC[C@]5(C)C4CC[C@@]32C)n1` (some centres not stated), the EC50 is > 56.2 µM and the IC50 is > 56.2 µM.

As for `Cc1cc(C23OC4COC(C)(C)OC4C2OC(C)(C)O3)ncn1` (configuration not stated), the EC50 is > 200 µM and the IC50 is > 200 µM.

In the case of `CCCc1cc(-c2ccc(-c3cc(CCC)c(C=O)[nH]3)s2)[nH]c1C=O`, the EC50 was > 5.62 µM and the IC50 worked out at 1.62 µM.

Turning to `CCOc1cn(C2OC(CO)C(O)C2O)c(=O)[nH]c1=O` (configuration not stated), the EC50 is > 871 µM and the half-maximal inhibitory concentration (IC50) was 490 µM.

(Values after PubChem BioAssay AID179 (DTP/NCI, 2004).)
